Measured values from ChEMBL document CHEMBL4138241, “Synthesis and in vitro evaluation of novel substituted isatin-propylene-1H-1,2,3-triazole-4-methylene-moxifloxacin hybrids for their anti-mycobacterial activities” (Eur J Med Chem, 2018).
Values after ≈ are worked out from the molar mass of the structure shown.

What was measured:
[1] = Cytotoxicity against African green monkey Vero cells assessed as reduction in cell viability after 72 hrs by MTT assay; type: cell-based; settings: chlorocebus sabaeus
[2] = Selectivity index, ratio of CC50 against African green monkey Vero cells to MIC for Mycobacterium tuberculosis H37Rv; type: toxicity; settings: read-out: Selectivity Index
[3] = tested on: Mycobacterium tuberculosis; assay: Antimycobacterial activity against Mycobacterium tuberculosis H37Rv after 3 days by rapid direct susceptibility test; type: functional; settings: 72 h
[4] = Cmax in ICR mouse at 50 mg/kg, po by HPLC analysis; type: ADME, organism-based; design: dose 50 mg/kg, route oral; settings: in vivo
[5] = AUC (0 to infinity) in ICR mouse at 50 mg/kg, po by HPLC analysis; type: ADME, organism-based; design: dose 50 mg/kg, time infinity, route oral; settings: in vivo
[6] = tested on: Mycobacterium tuberculosis; assay: Potency index, ratio of rifampicin MIC to compound MIC for antimycobacterial activity against Mycobacterium tuberculosis H37Rv; type: functional
[7] = Tmax in ICR mouse at 50 mg/kg, po by HPLC analysis; type: ADME, organism-based; settings: in vivo
[8] = Half life in mouse microsomes; type: ADME, Microsome
[9] = tested on: Mycobacterium tuberculosis; assay: Potency index, ratio of moxifloxacin MIC to compound MIC for antimycobacterial activity against Mycobacterium tuberculosis H37Rv; type: functional
[10] = Elimination half life in ICR mouse at 50 mg/kg, po by HPLC analysis; type: ADME, organism-based; settings: in vivo, read-out: beta t1/2 (converted)

CCO/N=C1/C(=O)N(CCCn2cc(CN3CCC[C@@H]4CN(c5c(F)cc6c(=O)c(C(=O)O)cn(C7CC7)c6c5OC)C[C@@H]43)nn2)c2ccccc21
CC50 at 72 h [1]: 16 µg/mL (≈ 22.4 µM)
selectivity ratio [2]: 41
MIC [3]: 0.39 µg/mL (≈ 0.547 µM)

COc1c(N2C[C@H]3CCCN(Cc4cn(CCCN5C(=O)C(=O)c6cc(C)ccc65)nn4)[C@H]3C2)c(F)cc2c(=O)c(C(=O)O)cn(C3CC3)c12
CC50 at 72 h [1]: 32 µg/mL (≈ 46.8 µM)
selectivity ratio [2]: 82
MIC [3]: 0.39 µg/mL (≈ 0.57 µM)

CO/N=C1/C(=O)N(CCCn2cc(CN3CCC[C@@H]4CN(c5c(F)cc6c(=O)c(C(=O)O)cn(C7CC7)c6c5OC)C[C@@H]43)nn2)c2ccccc21
CC50 at 72 h [1]: 16 µg/mL (≈ 22.9 µM)
selectivity ratio [2]: 160
MIC [3]: 0.1 µg/mL (≈ 0.143 µM)

CO/N=C1/C(=O)N(CCCn2cc(CN3CCC[C@@H]4CN(c5c(F)cc6c(=O)c(C(=O)O)cn(C7CC7)c6c5OC)C[C@@H]43)nn2)c2ccc(C)cc21
CC50 at 72 h [1]: 8 µg/mL (≈ 11.2 µM)
selectivity ratio [2]: 20.5
MIC [3]: 0.39 µg/mL (≈ 0.547 µM)

COc1c(N2C[C@H]3CCCN(Cc4cn(CCCN5C(=O)/C(=N/O)c6ccccc65)nn4)[C@H]3C2)c(F)cc2c(=O)c(C(=O)O)cn(C3CC3)c12
CC50 at 72 h [1]: 8 µg/mL (≈ 11.7 µM)
selectivity ratio [2]: 10.2
MIC [3]: 0.78 µg/mL (≈ 1.14 µM)

CO[C@H]1/C=C/O[C@@]2(C)Oc3c(C)c(O)c4c(O)c(c(/C=N/N5CCN(C)CC5)c(O)c4c3C2=O)NC(=O)/C(C)=C\C=C\[C@H](C)[C@H](O)[C@@H](C)[C@@H](O)[C@@H](C)[C@H](OC(C)=O)[C@@H]1C [RIFAMPIN]
CC50 at 72 h [1]: 512 µg/mL (≈ 622 µM)
selectivity ratio [2]: 1310
MIC [3]: 0.39 µg/mL (≈ 0.474 µM)

CO/N=C1/C(=O)N(CCCn2cc(CN3CCC[C@@H]4CN(c5c(F)cc6c(=O)c(C(=O)O)cn(C7CC7)c6c5OC)C[C@@H]43)nn2)c2ccc(F)cc21
CC50 at 72 h [1]: 4 µg/mL (≈ 5.58 µM)
Cmax [4]: 243 ng/mL
selectivity ratio [2]: 80
MIC [3]: 0.05 µg/mL (≈ 0.0698 µM)
AUC(0-inf) [5]: 1240 ng·h/mL
Ratio [6]: 2 - 8
Tmax [7]: 1.33 h
half-life [8]: 0.228 h
Ratio [9]: 2 - 8
half-life [10]: 3.87 h

COc1c(N2C[C@H]3CCCN(Cc4cn(CCCN5C(=O)/C(=N/O)c6cc(F)ccc65)nn4)[C@H]3C2)c(F)cc2c(=O)c(C(=O)O)cn(C3CC3)c12
CC50 at 72 h [1]: 2 µg/mL (≈ 2.85 µM)
selectivity ratio [2]: 2.6
MIC [3]: 0.78 µg/mL (≈ 1.11 µM)

COc1c(N2C[C@H]3CCCN(Cc4cn(CCCN5C(=O)C(=O)c6cc(F)ccc65)nn4)[C@H]3C2)c(F)cc2c(=O)c(C(=O)O)cn(C3CC3)c12
CC50 at 72 h [1]: 16 µg/mL (≈ 23.3 µM)
selectivity ratio [2]: 20.5
MIC [3]: 0.78 µg/mL (≈ 1.13 µM)

COc1c(N2C[C@@H]3CCCN[C@@H]3C2)c(F)cc2c(=O)c(C(=O)O)cn(C3CC3)c12 [MOXIFLOXACIN]
CC50 at 72 h [1]: 128 µg/mL (≈ 319 µM)
Cmax [4]: 2730 ng/mL
MIC [3]: 0.1 µg/mL (≈ 0.249 µM)
AUC(0-inf) [5]: 7030 ng·h/mL
Tmax [7]: 1.08 h

NNC(=O)c1ccncc1 [ISONIAZID]
CC50 at 72 h [1]: 128 µg/mL (≈ 933 µM)
selectivity ratio [2]: 2560
MIC [3]: 0.05 µg/mL (≈ 0.365 µM)

CCO/N=C1/C(=O)N(CCCn2cc(CN3CCC[C@@H]4CN(c5c(F)cc6c(=O)c(C(=O)O)cn(C7CC7)c6c5OC)C[C@@H]43)nn2)c2ccc(F)cc21
CC50 at 72 h [1]: 4 µg/mL (≈ 5.47 µM)
selectivity ratio [2]: 20
MIC [3]: 0.2 µg/mL (≈ 0.274 µM)

COc1c(N2C[C@H]3CCCN(Cc4cn(CCCN5C(=O)C(=O)c6ccccc65)nn4)[C@H]3C2)c(F)cc2c(=O)c(C(=O)O)cn(C3CC3)c12
CC50 at 72 h [1]: 16 µg/mL (≈ 23.9 µM)
selectivity ratio [2]: 10.2
MIC [3]: 1.56 µg/mL (≈ 2.33 µM)

CCO/N=C1/C(=O)N(CCCn2cc(CN3CCC[C@@H]4CN(c5c(F)cc6c(=O)c(C(=O)O)cn(C7CC7)c6c5OC)C[C@@H]43)nn2)c2ccc(C)cc21
CC50 at 72 h [1]: 4 µg/mL (≈ 5.5 µM)
selectivity ratio [2]: 10.2
MIC [3]: 0.39 µg/mL (≈ 0.537 µM)

COc1c(N2C[C@H]3CCCN(Cc4cn(CCCN5C(=O)/C(=N/O)c6cc(C)ccc65)nn4)[C@H]3C2)c(F)cc2c(=O)c(C(=O)O)cn(C3CC3)c12
CC50 at 72 h [1]: 8 µg/mL (≈ 11.4 µM)
selectivity ratio [2]: 5.1
MIC [3]: 1.56 µg/mL (≈ 2.23 µM)
